Test results published in the NIST ThermoML archive (doi:10.1016/j.jct.2015.07.028).

Test: molar heat capacity at saturation pressure
Conditions: Liquid, Small (less than 1 g) adiabatic calorimetry

C=CC(C)(C)O [2-methyl-3-buten-2-ol]
Conditions | molar heat capacity [J/K/mol]
285.94 K | 226.8
287.43 K | 228
288.26 K | 228.9
289.48 K | 229.9
290 K | 230.3
290.57 K | 230.9
291.53 K | 231.6
292.87 K | 232.8
293.58 K | 233.4
295.16 K | 234.7
295.63 K | 235.2
297.44 K | 236.8
297.69 K | 236.9
298.15 K | 237.4
299.72 K | 238.7
299.74 K | 238.7
300 K | 238.9
301.79 K | 240.4
303.84 K | 242.1
305.9 K | 243.7
307.95 K | 245.3
310 K | 246.9
310.01 K | 246.9
312.06 K | 248.3
314.12 K | 249.9
316.18 K | 251.3
318.23 K | 252.8
320 K | 253.9
320.29 K | 254.1
322.35 K | 255.4
324.41 K | 256.7
326.47 K | 258
328.53 K | 259.1
330 K | 259.9
330.59 K | 260.2
332.65 K | 261.4
334.71 K | 262.3
336.78 K | 263.3
338.84 K | 264.2
340 K | 264.7
340.9 K | 265
342.97 K | 265.8
345.03 K | 266.6
347.09 K | 267.3
349.16 K | 268
350 K | 268.3
351.22 K | 268.7
353.29 K | 269.1
355.35 K | 269.8
357.42 K | 270.4
359.48 K | 270.9
360 K | 270.9
361.55 K | 271.3
363.61 K | 271.6
365.68 K | 272.1
367.74 K | 272.4
370 K | 272.9
